Legend:
Format in all cases: biochemical
[1] = molecular target: T1, cathepsin K activated from recombinant human procathepsin K (Homo sapiens, UniProt P43235); assay: Cathepsin K kinetic fluorescence enzyme inhibition assay; settings: selectivity ratio versus calpain I
T1 construct: purchased Calbiochem 342001; host or cells: E. coli
T1 sequence (P43235 115-329): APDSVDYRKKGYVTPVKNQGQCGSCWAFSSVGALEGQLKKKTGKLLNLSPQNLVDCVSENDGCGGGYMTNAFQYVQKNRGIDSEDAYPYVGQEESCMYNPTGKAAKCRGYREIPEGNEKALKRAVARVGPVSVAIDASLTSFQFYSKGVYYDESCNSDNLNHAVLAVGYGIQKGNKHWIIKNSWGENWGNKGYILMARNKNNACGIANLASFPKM

[2] = molecular target: T2, cathepsin B isolated from human liver (Homo sapiens, UniProt P07858); assay: Cathepsin B kinetic fluorescence enzyme inhibition assay; settings: selectivity ratio versus calpain I
T2 construct: cathepsin B—isolated from human liver; purchased Calbiochem 219362; host or cells: human liver (tissue isolate)
How it was run: (§1)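 Cathepsin B (0.25 nM, human liver) with 100 μM Z-Phe-Arg-AMC; L (1 nM, human liver) with 2 μM Z-Phe-Arg-AMC; S (0.5 nM, recombinant) with 20 μM Z-Val-Val-Arg-AMC. pH 6.0 MES buffer, 2.5 mM L-cysteine, room temperature. Kinetic fluorescence (ex 390/em 460 nm); apparent Ki from IC50 by Cheng-Prusoff.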

[3] = molecular target: T3, recombinant human cathepsin S (Homo sapiens, UniProt P25774); assay: Cathepsin S kinetic fluorescence enzyme inhibition assay; settings: selectivity ratio versus calpain I
T3 construct: purchased Calbiochem 219343; host or cells: E. coli
T3 sequence (P25774 115-331): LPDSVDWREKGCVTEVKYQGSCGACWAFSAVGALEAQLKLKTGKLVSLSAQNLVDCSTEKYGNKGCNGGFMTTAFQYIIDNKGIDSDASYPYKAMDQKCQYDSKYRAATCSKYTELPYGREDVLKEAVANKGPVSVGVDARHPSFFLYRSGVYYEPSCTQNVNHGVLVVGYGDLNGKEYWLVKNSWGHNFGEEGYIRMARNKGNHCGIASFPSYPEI
How it was run: as §1

[4] = molecular target: T4, calpain-I isolated from human erythrocytes (Homo sapiens, UniProt P07384); assay: Calpain I kinetic fluorescence enzyme inhibition assay; settings: apparent Ki from IC50 by Cheng-Prussoff; average of 2 to 4 dose-effect plots
T4 construct: calpain-I—isolated from human erythrocytes; purchased Calbiochem 208713; host or cells: human erythrocytes (tissue isolate)
T4 sequence (P07384 1-714): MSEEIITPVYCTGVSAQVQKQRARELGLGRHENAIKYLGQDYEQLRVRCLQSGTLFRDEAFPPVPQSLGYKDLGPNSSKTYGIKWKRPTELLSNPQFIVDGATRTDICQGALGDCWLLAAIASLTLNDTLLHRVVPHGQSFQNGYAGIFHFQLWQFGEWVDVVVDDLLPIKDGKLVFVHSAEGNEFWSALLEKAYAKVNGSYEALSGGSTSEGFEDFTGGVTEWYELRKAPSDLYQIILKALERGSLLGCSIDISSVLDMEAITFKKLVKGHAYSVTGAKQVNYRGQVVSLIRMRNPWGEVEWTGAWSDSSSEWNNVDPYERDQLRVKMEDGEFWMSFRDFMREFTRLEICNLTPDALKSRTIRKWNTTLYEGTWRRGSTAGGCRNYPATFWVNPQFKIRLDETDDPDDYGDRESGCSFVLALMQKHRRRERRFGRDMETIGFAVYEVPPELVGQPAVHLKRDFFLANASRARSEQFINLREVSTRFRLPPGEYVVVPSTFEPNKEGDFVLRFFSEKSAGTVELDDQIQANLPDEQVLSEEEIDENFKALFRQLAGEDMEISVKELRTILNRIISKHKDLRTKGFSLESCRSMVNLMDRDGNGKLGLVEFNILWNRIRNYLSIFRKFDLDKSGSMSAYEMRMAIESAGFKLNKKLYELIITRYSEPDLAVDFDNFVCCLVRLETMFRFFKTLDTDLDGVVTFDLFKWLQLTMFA
T4 sequence (P04632 1-268 partner): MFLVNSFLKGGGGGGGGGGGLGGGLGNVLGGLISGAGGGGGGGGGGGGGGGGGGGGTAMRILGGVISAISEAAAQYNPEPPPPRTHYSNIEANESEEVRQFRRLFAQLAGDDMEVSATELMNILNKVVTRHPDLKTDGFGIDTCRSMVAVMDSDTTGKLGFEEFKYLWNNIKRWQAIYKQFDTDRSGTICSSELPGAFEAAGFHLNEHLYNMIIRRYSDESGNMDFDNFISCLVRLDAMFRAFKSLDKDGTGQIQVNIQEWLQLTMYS

[5] = molecular target: T5, cathepsin L isolated from human liver (Homo sapiens, UniProt P07711); assay: Cathepsin L kinetic fluorescence enzyme inhibition assay; settings: selectivity ratio versus calpain I
T5 construct: cathepsin L—isolated from human liver; purchased Calbiochem 219402; host or cells: human liver (tissue isolate)
T5 sequence (P07711 114-333): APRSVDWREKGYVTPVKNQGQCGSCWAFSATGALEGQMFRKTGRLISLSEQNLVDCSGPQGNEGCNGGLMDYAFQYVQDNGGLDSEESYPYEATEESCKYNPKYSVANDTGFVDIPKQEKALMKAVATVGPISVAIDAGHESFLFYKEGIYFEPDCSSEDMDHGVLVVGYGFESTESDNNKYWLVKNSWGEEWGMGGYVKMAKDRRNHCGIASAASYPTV
How it was run: as §1

Sel cat. K (Ki(cathepsin K)/Ki(calpain) ratio) [1]	Ki [4]	Compound	Sel cat. B (Ki(cathepsin B)/Ki(calpain) ratio) [2]	Sel cat. S (Ki(cathepsin S)/Ki(calpain) ratio) [3]	Sel cat. L (Ki(cathepsin L)/Ki(calpain) ratio) [5]
+ (10≦Ki(cathepsin K)/Ki(calpain)<30)	0.04 to 0.1 µM	COc1ccc(CC(NC(=O)c2cccnc2-n2ccc(-c3ccccc3)n2)C(=O)C(N)=O)cc1 (stereo not drawn) [Example 80, N-[3-Amino-1-(4-methoxybenzyl)-2,3-dioxopropyl]-2-(3-phenyl-1H-pyrazol-1-yl)nicotinamide]	++ (Ki(cathepsin B)/Ki(calpain) ratio of ≧30)	++ (Ki(cathepsin S)/Ki(calpain) ratio of ≧100)	++ (Ki(cathepsin L)/Ki(calpain) ratio of ≧50)
+ (10≦Ki(cathepsin K)/Ki(calpain)<30)	≤ 0.04 µM	COc1ccc(CC(NC(=O)c2cccnc2-n2ccc(-c3ccc(F)cc3)n2)C(=O)C(N)=O)cc1 (stereo not drawn) [Example 81, N-[3-Amino-1-(4-methoxybenzyl)-2,3-dioxopropyl]-2-[3-(4-fluorophenyl)-1H-pyrazol-1-yl]nicotinamide]	+ (10≦Ki(cathepsin B)/Ki(calpain)<30)	++ (Ki(cathepsin S)/Ki(calpain) ratio of ≧100)	++ (Ki(cathepsin L)/Ki(calpain) ratio of ≧50)
+ (10≦Ki(cathepsin K)/Ki(calpain)<30)	≤ 0.04 µM	COc1ccccc1-c1ccn(-c2ncccc2C(=O)NC(Cc2ccccc2)C(=O)C(N)=O)n1 (stereo not drawn) [Example 90, N-[3-Amino-2,3-dioxo-1-(phenylmethyl)propyl]-2-{3-[2-(methyloxy)phenyl]-1H-pyrazol-1-yl}pyridine-3-carboxamide]	++ (Ki(cathepsin B)/Ki(calpain) ratio of ≧30)	++ (Ki(cathepsin S)/Ki(calpain) ratio of ≧100)	++ (Ki(cathepsin L)/Ki(calpain) ratio of ≧50)
+ (10≦Ki(cathepsin K)/Ki(calpain)<30)	≤ 0.04 µM	NC(=O)C(=O)C(Cc1ccccc1)NC(=O)c1cccnc1-n1ccc(-c2cc(F)cc(F)c2)n1 (stereo not drawn) [Example 91, N-[3-Amino-2,3-dioxo-1-(phenylmethyl)propyl]-2-[3-(3,5-difluorophenyl)-1H-pyrazol-1-yl]pyridine-3-carboxamide]	++ (Ki(cathepsin B)/Ki(calpain) ratio of ≧30)	++ (Ki(cathepsin S)/Ki(calpain) ratio of ≧100)	++ (Ki(cathepsin L)/Ki(calpain) ratio of ≧50)
+ (10≦Ki(cathepsin K)/Ki(calpain)<30)	0.04 to 0.1 µM	COc1ccc(CC(NC(=O)c2cccnc2-n2ccc(-c3ccccc3F)n2)C(=O)C(N)=O)cc1 (stereo not drawn) [Example 92, N-(3-Amino-1-{[4-(methyloxy)phenyl]methyl}-2,3-dioxopropyl)-2-[3-(2-fluorophenyl)-1H-pyrazol-1-yl]pyridine-3-carboxamide]	++ (Ki(cathepsin B)/Ki(calpain) ratio of ≧30)	++ (Ki(cathepsin S)/Ki(calpain) ratio of ≧100)	++ (Ki(cathepsin L)/Ki(calpain) ratio of ≧50)
+ (10≦Ki(cathepsin K)/Ki(calpain)<30)	≤ 0.04 µM	Cc1ccccc1-c1ccn(-c2ncccc2C(=O)NC(Cc2ccccc2)C(=O)C(N)=O)n1 (stereo not drawn) [Example 93, N-[3-Amino-2,3-dioxo-1-(phenylmethyl)propyl]-2-[3-(2-methylphenyl)-1H-pyrazol-1-yl]pyridine-3-carboxamide]	++ (Ki(cathepsin B)/Ki(calpain) ratio of ≧30)	++ (Ki(cathepsin S)/Ki(calpain) ratio of ≧100)	++ (Ki(cathepsin L)/Ki(calpain) ratio of ≧50)
+ (10≦Ki(cathepsin K)/Ki(calpain)<30)	0.04 to 0.1 µM	NC(=O)C(=O)C(Cc1ccccc1)NC(=O)c1cccnc1-n1ccc(-c2ccc(F)cc2F)n1 (stereo not drawn) [Example 94, N-[3-Amino-2,3-dioxo-1-(phenylmethyl)propyl]-2-[3-(2,4-difluorophenyl)-1H-pyrazol-1-yl]pyridine-3-carboxamide]	++ (Ki(cathepsin B)/Ki(calpain) ratio of ≧30)	++ (Ki(cathepsin S)/Ki(calpain) ratio of ≧100)	++ (Ki(cathepsin L)/Ki(calpain) ratio of ≧50)

Compound	Sel cat. K (Ki(cathepsin K)/Ki(calpain) ratio) [1]	Ki [4]	Sel cat. B (Ki(cathepsin B)/Ki(calpain) ratio) [2]	Sel cat. S (Ki(cathepsin S)/Ki(calpain) ratio) [3]	Sel cat. L (Ki(cathepsin L)/Ki(calpain) ratio) [5]
NC(=O)C(=O)C(Cc1ccccc1)NC(=O)c1cccnc1-n1ccc(-c2cccc(C(F)(F)F)c2)n1 (stereo not drawn) [Example 83, N-(3-Amino-1-benzyl-2,3-dioxopropyl)-2-{3-[3-(trifluoromethyl)phenyl]-1H-pyrazol-1-yl}nicotinamide]	++ (Ki(cathepsin K)/Ki(calpain) ratio of ≧30)	≤ 0.04 µM	+ (10≦Ki(cathepsin B)/Ki(calpain)<30)	++ (Ki(cathepsin S)/Ki(calpain) ratio of ≧100)	++ (Ki(cathepsin L)/Ki(calpain) ratio of ≧50)
NC(=O)C(=O)C(Cc1ccccc1)NC(=O)c1cccnc1-n1ccc(-c2c(F)cccc2F)n1 (stereo not drawn) [Example 85, N-[3-Amino-2,3-dioxo-1-(phenylmethyl)propyl]-2-[3-(2,6-difluorophenyl)-1H-pyrazol-1-yl]pyridine-3-carboxamide]	++ (Ki(cathepsin K)/Ki(calpain) ratio of ≧30)	≤ 0.04 µM	+ (10≦Ki(cathepsin B)/Ki(calpain)<30)	++ (Ki(cathepsin S)/Ki(calpain) ratio of ≧100)	++ (Ki(cathepsin L)/Ki(calpain) ratio of ≧50)
CC(C)c1ccc(-c2ccn(-c3ncccc3C(=O)NC(Cc3ccccc3)C(=O)C(N)=O)n2)cc1 (stereo not drawn) [Example 87, N-[3-Amino-2,3-dioxo-1-(phenylmethyl)propyl]-2-{3-[4-(1-methylethyl)phenyl]-1H-pyrazol-1-yl}pyridine-3-carboxamide]	++ (Ki(cathepsin K)/Ki(calpain) ratio of ≧30)	≤ 0.04 µM	++ (Ki(cathepsin B)/Ki(calpain) ratio of ≧30)	++ (Ki(cathepsin S)/Ki(calpain) ratio of ≧100)	++ (Ki(cathepsin L)/Ki(calpain) ratio of ≧50)
Cl.NC(=O)C(=O)C(Cc1cccnc1)NC(=O)c1cccnc1-n1ccc(-c2ccccc2)n1 (stereo not drawn) [Example 88, N-[3-Amino-2,3-dioxo-1-(pyridin-3-ylmethyl)propyl]-2-(3-phenyl-1H-pyrazol-1-yl)pyridine-3-carboxamide hydrochloride]	++ (Ki(cathepsin K)/Ki(calpain) ratio of ≧30)	0.04 to 0.1 µM	+ (10≦Ki(cathepsin B)/Ki(calpain)<30)	++ (Ki(cathepsin S)/Ki(calpain) ratio of ≧100)	++ (Ki(cathepsin L)/Ki(calpain) ratio of ≧50)
NC(=O)C(=O)C(Cc1ccccc1)NC(=O)c1cccnc1-n1ccc(-c2c(Cl)cccc2Cl)n1 (stereo not drawn) [Example 95, N-[3-Amino-2,3-dioxo-1-(phenylmethyl)propyl]-2-[3-(2,6-dichlorophenyl)-1H-pyrazol-1-yl]pyridine-3-carboxamide]	++ (Ki(cathepsin K)/Ki(calpain) ratio of ≧30)	≤ 0.04 µM	++ (Ki(cathepsin B)/Ki(calpain) ratio of ≧30)	++ (Ki(cathepsin S)/Ki(calpain) ratio of ≧100)	++ (Ki(cathepsin L)/Ki(calpain) ratio of ≧50)
